Measurements: patent US20220332774A1, “THERAPEUTIC MITOCHONDRIAL PEPTIDES” (priority 2019, published 2022)

Columns and labels:
H4-IIE Cells = experiment: Glucose production in cultured H4-IIE cells; type: cell-based, rat; conditions: glucose concentration in medium relative to untreated cells; 5 μM peptide, 24 h
Procedure: The effect of the peptides on glucose homeostasis can be assessed using an assay to monitor glucose production by cultured cells such as rat hepatocytes. Peptide arrays were initially prepared as 5 mM stock in DMSO and diluted to 0.5 mM in H2O; peptides were used at a final concentration of 5 μM (0.1% DMSO). Calculations for peptide concentrations based on approximate molecular weight of 2000 Daltons. H4-IIE rat hepatic cell line was purchased from American Type Culture Collection (Manassas, Va.). H4-IIE cells were seeded in standard medium (DMEM/high glucose+10% Fetal Bovine Serum+antibiotics) at 100,000 cells/well on 96-well plates and allowed to adhere overnight at 37° C. in a humidified atmosphere of 5% CO2/95% air. 24 h after seeding, the medium was removed, cells were rinsed with glucose free DMEM, and the medium replaced with Glucose Production Medium (glucose free DMEM+2 mM sodium pyruvate+10 mM sodium lactate+antibiotics). The cultures were placed at 37° C. in a humidified atmosphere of 5% CO2/95% air overnight. The next morning, the medium was removed and fresh Glucose Production Medium containing compounds was added; 5 uM peptide or 0.5-1 nM insulin as a potent inhibitor of glucose production. Cells were incubated for 24 h at 37° C. in a humidified atmosphere of 5% CO2/95% air. Following 24 h incubation, conditioned medium from each well was transferred to a fresh 96-well plate. Glucose concentrations in the medium were determined using a Glucose Assay kit (Abcam; Cambridge, Mass.) according to the manufacturer's instructions; absorbance measured using a Cytation 3 plate reader at 570 nm (BioTek, Winooski, Vt.). Untreated cells were used as reference for maximal glucose production. Absorbance values were expressed as percent control activity relative to untreated treated cells for 5 μM peptide. The relative standard deviation from plate to plate of untreated control was <25%. […] Glucose levels for 0.5-1 nM insulin treatment were <5% of the untreated control value. Data are presented as representative values from 2-3 independent experiments with each data point performed in triplicate in each independent experiment.

C2C12 Cells = experiment: Glucose utilization in cultured C2C12 cells (myotubes); type: cell-based, mouse; conditions: glucose concentration in medium relative to untreated cells; 5 μM peptide, 22 h
Procedure: The effect of the peptides on glucose homeostasis can be assessed using an assay to monitor glucose utilization by cultured cells such as mouse myotubes. Peptide arrays were initially prepared as 5 mM stock in DMSO and diluted to 0.5 mM in H2O; peptides were used at a final concentration of 5 μM (0.1% DMSO). Calculations for peptide concentrations based on approximate molecular weight of 2000 Daltons. C2C12 mouse muscle cell line was purchased from Millipore Sigma (Saint Louis, Mo.). C2C12 cells were seeded in standard medium (DMEM/low glucose (1 g/L)+10% Fetal Bovine Serum+antibiotics) at 7,500 cells/well on 96-well plates and grown to confluence at 37° C. in a humidified atmosphere of 5% CO2/95% air. Three days after plating the medium was removed and with Differentiation Medium (DMEM/low glucose (1 g/L)+2% Horse Serum+antibiotics) added. The cultures were placed at 37° C. in a humidified atmosphere of 5% CO2/95% air for 5 days with partially replacement of medium daily. After 5 days of differentiation, the medium was removed from myotube cultures and replaced with Assay Medium (DMEM/low glucose (1 g/L)+antibiotics). Culture were placed at 37° C. in a humidified atmosphere of 5% CO2/95% air for 5 h. Following the 5 h incubation the medium was removed and fresh Assay Medium containing compounds was added; 5 μM peptide or 1 mM metformin as a potent stimulator of glucose utilization. Cells were incubated for 22 h at 37° C. in a humidified atmosphere of 5% CO2/95% air. Following 22 h incubation, conditioned medium from each well was transferred to a fresh 96-well plate. Glucose concentrations in the medium were determined using a Glucose Assay kit (Abcam; Cambridge, Mass.) according to the manufacturer's instructions; absorbance measured using a Cytation 3 plate reader at 570 nm (BioTek, Winooski, Vt.). Untreated cells were used as reference for basal glucose utilization. Absorbance values were expressed as percent control activity relative to untreated treated cells for 5 μM peptide. The relative standard deviation from plate to plate of untreated control was <10%. […] Data presented are representative values from 2-3 independent experiments with each data point performed in triplicate in each independent experiment.

3T3-L1 Mouse Adipocytes = experiment: Free fatty acid levels in cultured 3T3-L1 mouse adipocytes (isoproterenol stimulated); type: cell-based; conditions: free fatty acid in medium; 5 μM peptide, 20-22 h pre-incubation then 3 h with 0.1 nM isoproterenol; isoproterenol alone = 100%
Procedure: The effect of the peptides on fatty acid metabolism can be assessed using an assay to monitor free fatty acid levels produced by cultured cells such as mouse adipocytes. Peptide arrays were initially prepared as 5 mM stock in DMSO and diluted to 0.5 mM in H2O; peptides were used at a final concentration of 5 μM (0.1% DMSO). Calculations for peptide concentrations based on approximate molecular weight of 2000 Daltons. […] Mouse 3T3-L1 cells purchased from ZenBio (Research Triangle Park, NC) were seeded at 3,000 cells per well in 96-well plates in Pre-adipocyte Medium (Zen-Bio) and grown to confluence at 37° C. in a humidified atmosphere of 5% CO2/95% air. Two days after confluence, cells were placed in Adipocyte Differentiation Medium (Zen-Bio) and cultured for three additional days at 37° C. in a humidified atmosphere of 5% CO2/95% air. The culture medium was then replaced with Adipocyte Maintenance Medium (Zen-Bio) and the cells maintained for an additional 9 days at 37° C. in a humidified atmosphere of 5% CO2/95% air with partial medium replacement every other day. Following 12 days of differentiation, medium was replaced Adipocyte Maintenance Medium without insulin and the cultures placed at 37° C. in a humidified atmosphere of 5% CO2/95% air. On day 13 of differentiation, test peptides were added directly to each well (without replacing the medium) at a final concentration of 5 μM in 0.1% DMSO and incubated for 20-22 hours at 37° C. in a humidified atmosphere of 5% CO2/95% air. […] Cells were incubated for 3 hours in Assay Buffer (Zen-Bio) at 37° C. in a humidified atmosphere of 5% CO2/95% air. Following 3 h incubation, conditioned medium from each well was transferred to a fresh 96-well plate. Free fatty acid concentrations in the medium were determined using a Free Fatty Acid Assay kit (Zen-Bio) according to the manufacturer's instructions; absorbance was measured using a Cytation 3 plate reader at 540 nm (BioTek, Winooski, Vt.). Treatment with 0.1 nM isoproterenol alone was used as the free fatty acid level stimulatory control. Absorbance values were expressed as percent control activity relative to 0.1 nM isoproterenol alone treated cells, 100%. The relative standard deviation of the isoproterenol control was <10%. Insulin at 0.25 nM was used as a potent control for decreasing free fatty acid levels. […] Data presented are representative values from 2 independent experiments with each data point performed in triplicate in each independent experiment.

Substance	Percent of Control Activity (H4-IIE Cells) [%]	Percent of Control Activity (C2C12 Cells) [%]	Percent of Isoproterenol Control Activity (3T3-L1 Mouse Adipocytes) [%]
72 (MLQGQAHLSILFSI) [compound 72]	107	97	96
73 (MLRSMLWNLWSKPQFHAHRP) [compound 73]	111	111	98
75 (MLTPGLVNFVPATAVTRLTQVN) [compound 75]	112	100	79
78 (MMAHLGKKPVSGG) [compound 78]	114	106	96
79 (MMCLRFRWCGLWS) [compound 79]	116	94	90
80 (MMDPEHMNSMALKKAWVQMC) [compound 80]	111	99	87
81 (MMFPIRLHNSPIRP) [compound 81]	115	118	90
82 (MMGITMKKIITNAWAVTMTL) [compound 82]	114	105	98
83 (MMGMWLVGHYVLSC) [compound 83]	109	95	102
84 (MMKGKMKWKVKNRV) [compound 84]	108	95	99
85 (MMKLRLTPWRLPDPPNHH) [compound 85]	108	88	81
86 (MMLSWDDIIYGG) [compound 86]	108	87	98
87 (MMMFVYSAMKN) [compound 87]	109	97	101
88 (MMMTIECLHSHFPH) [compound 88]	112	87	95
89 (MMNSDSIIPS) [compound 89]	110	112	111
90 (MMSVWKVAVQTFNCYYYVLQALIN) [compound 90]	104	97	101

Substance	Percent of Control Activity (H4-IIE Cells) [%]	Percent of Control Activity (C2C12 Cells) [%]	Percent of Isoproterenol Control Activity (3T3-L1 Mouse Adipocytes) [%]
91 (MMTHPTTPLTINTKPP) [compound 91]	116	109	93
92 (MMTWSPWKPVATKNVEP) [compound 92]	124	93	99
93 (MMWKTIVVFQLQEHQWPQYAKLTP) [compound 93]	120	104	96
95 (MNHIMAKGHDG) [compound 95]	121	92	111
96 (MNHNQYYQSMLIINNHNSYSNKT) [compound 96]	130	91	100
97 (MNNSSSTVQP) [compound 97]	122	95	105
98 (MNPDQPHHLLLSLYTAIFSKPWW) [compound 98]	117	91	97
100 (MPIIRRMSWSP) [compound 100]	123	102	105
102 (MPLRLEWVQWGVGGWPWVCC) [compound 102]	108	102	120
103 (MPPKDKIWNLV) [compound 103]	97	98	108
105 (MPRKCWLYPSRTN) [compound 105]	118	114	91
106 (MPTNLPTLNST) [compound 106]	107	101	98
107 (MPTPILIFRSPWSLYSYPT) [compound 107]	96	110	104
108 (MQFTLATPKCYGPGA) [compound 108]	104	96	102
109 (MQNPPHSSPHSSPLPRYSYLSPLLY) [compound 109]	105	95	94
110 (MQPYRRYRFHPRLSMIYPTLQLM) [compound 110]	108	110	93
